Experimental data published in BindingDB's records for doi:10.7270/Q2513WMG (The Scripps Research Institute Molecular Screening Center, 2009).

Biological target: Transitional endoplasmic reticulum ATPase (Homo sapiens, UniProt P55072, C522A)
Experiment: C522A mutant p97 ATPase inhibitors, dose response, counter-screen for p97 inhibitor project, biochemical, luminescence (AID 1544)

Chain of Transitional endoplasmic reticulum ATPase (P55072 2-806 C522A limits assumed): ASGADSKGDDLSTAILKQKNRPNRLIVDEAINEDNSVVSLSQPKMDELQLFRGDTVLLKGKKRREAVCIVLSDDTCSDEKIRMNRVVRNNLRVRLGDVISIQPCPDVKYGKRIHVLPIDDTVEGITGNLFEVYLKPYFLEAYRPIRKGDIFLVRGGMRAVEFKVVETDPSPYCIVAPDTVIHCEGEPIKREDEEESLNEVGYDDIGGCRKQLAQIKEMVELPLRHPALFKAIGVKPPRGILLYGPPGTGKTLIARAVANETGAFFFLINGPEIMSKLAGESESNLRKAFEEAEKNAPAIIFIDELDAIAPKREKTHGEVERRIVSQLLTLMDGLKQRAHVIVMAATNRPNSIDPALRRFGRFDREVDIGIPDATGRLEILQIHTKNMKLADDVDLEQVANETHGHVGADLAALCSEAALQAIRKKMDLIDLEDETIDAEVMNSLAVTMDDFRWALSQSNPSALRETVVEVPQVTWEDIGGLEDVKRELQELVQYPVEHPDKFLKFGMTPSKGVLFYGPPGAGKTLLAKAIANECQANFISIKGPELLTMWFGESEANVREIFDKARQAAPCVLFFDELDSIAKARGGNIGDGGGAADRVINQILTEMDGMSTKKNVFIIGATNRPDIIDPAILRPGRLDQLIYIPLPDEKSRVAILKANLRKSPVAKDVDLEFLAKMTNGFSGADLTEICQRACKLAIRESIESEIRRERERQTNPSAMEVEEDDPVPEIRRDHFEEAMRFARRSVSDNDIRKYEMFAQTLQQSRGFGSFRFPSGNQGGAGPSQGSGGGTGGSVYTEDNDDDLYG

SMILES | IC50 [µM]
NS(=O)(=O)c1ccc(N=NCc2ccc(O)c(O)c2O)c([N+](=O)[O-])c1 [4-[[(E)-(2,3-dihydroxy-4-oxo-1-cyclohexa-2,5-dienylidene)methyl]hydrazo]-3-nitrobenzenesulfonamide] | > 50
CN(C)[C@@H]1C(=O)C(C(N)=O)C(=O)[C@@]2(O)C(=O)C3C(=O)c4c(O)cccc4[C@@](C)(O)[C@H]3[C@H](O)[C@@H]12 (stereo partly drawn) [(2E,4S,4aR,5S,5aR,6S,12aS)-2-[azanyl(oxidanyl)methylidene]-4-(dimethylamino)-6-methyl-5,6,10,11,12a-pentakis(oxidanyl)-4,4a,5,5a-tetrahydrotetracene-1,3,12-trione] | > 50
Cc1ccc(SCC(=O)C(C#N)c2nc3ccccc3s2)cc1 (configuration not stated) [(2Z)-2-(3H-1,3-benzothiazol-2-ylidene)-3-keto-4-(p-tolylthio)butyronitrile] | > 50
Cc1ccc(C)c(SCC(=O)OCC(=O)C(C#N)c2nc3ccccc3[nH]2)c1 (configuration not stated) [MLS000392255] | > 50

Further lines, results first:

IC50 [µM] | SMILES
> 50 | On1[o+]nc2c1CCc1nc(-c3ccccc3)[n-]c1-2 [3-oxidanidyl-7-phenyl-4,5-dihydro-1H-imidazo[4,5-g][2,1,3]benzoxadiazol-3-ium]
> 50 | COc1ccc(CN=Nc2nnc(-c3ccccc3)c(=O)[nH]2)cc1 [4-methoxybenzaldehyde (5-oxo-6-phenyl-4,5-dihydro-1,2,4-triazin-3-yl)hydrazone]
> 50 | Oc1ccc(CN=Nc2ccnc3cc(Cl)ccc23)cc1O [(4Z)-4-[[2-(7-chloroquinolin-4-yl)hydrazinyl]methylidene]-2-hydroxycyclohexa-2,5-dien-1-one]
